Experimental data: ChEMBL document CHEMBL3352818, “Seizure prevention by the naturally occurring phenols, carvacrol and thymol in a partial seizure-psychomotor model” (Bioorg Med Chem Lett, 2014)
Calls of active or inactive are those of the source. The rule behind the calls is not given here.

What was measured:
Mus musculus [1] = experiment: Anticonvulsant activity against CF1 albino mouse seizure model assessed as time to peak effect at 100 mg/kg, ip by 6 Hz psychomotor seizure test; format: functional; settings: route intraperitoneal
Mus musculus [2] = experiment: Anticonvulsant activity against ip dosed CF1 albino mouse seizure model after 4 hrs by 6 Hz psychomotor seizure test; format: functional
Mus musculus [3] = experiment: Neurotoxicity in CF1 albino mouse seizure model assessed as time to peak toxic effect at 100 mg/kg, ip after 4 hr by rototod test; format: toxicity, organism-based; design: dose 100 mg/kg, route intraperitoneal; settings: in vivo
Mus musculus [4] = experiment: Neurotoxicity in CF1 albino mouse seizure model at 100 mg/kg, ip after 4 hrs by rototod test; format: toxicity, organism-based; design: dose 100 mg/kg, route intraperitoneal; settings: in vivo
[5] = Protective index, ratio of TD50 for CF1 albino mouse neurotoxicity to ED50 for protection against 6 Hz electroshock-induced seizure in CF1 albino mouse; format: toxicity, organism-based; settings: in vivo, read-out: Ratio TD50/ED50
Mus musculus [6] = experiment: Neurotoxicity in CF1 albino mouse seizure model at 100 mg/kg, ip after 0.5 hrs by rototod test; format: toxicity, organism-based; design: dose 100 mg/kg, route intraperitoneal; settings: in vivo
Mus musculus [7] = experiment: Anticonvulsant activity in CF1 albino mouse assessed as protection against pentylenetetrazole-induced seizure at 100 mg/kg, ip after 2 hrs by scMET test; format: functional, organism-based; design: dose 100 mg/kg
Mus musculus [8] = experiment: Anticonvulsant activity against CF1 albino mouse seizure model assessed as protection at 100 mg/kg, ip after 0.5 hrs by 6 Hz psychomotor seizure test; format: functional, organism-based; design: dose 100 mg/kg
Mus musculus [9] = experiment: Neurotoxicity in CF1 albino mouse seizure model at 100 mg/kg, ip after 0.25 hrs by rototod test; format: toxicity, organism-based; design: dose 100 mg/kg, route intraperitoneal; settings: in vivo
Mus musculus [10] = experiment: Anticonvulsant activity against CF1 albino mouse seizure model assessed as protection at 100 mg/kg, ip after 1 hrs by 6 Hz psychomotor seizure test; format: functional, organism-based; design: dose 100 mg/kg
[11] = Neurotoxicity in ip dosed CF1 albino mouse seizure model after 4 hr by rototod test; format: toxicity, organism-based; settings: in vivo
Mus musculus [12] = experiment: Anticonvulsant activity in CF1 albino mouse assessed as protection against maximal electroshock-induced seizures at 100 mg/kg, ip after 0.25 hrs; format: functional, organism-based; design: dose 100 mg/kg
Mus musculus [13] = experiment: Anticonvulsant activity in CF1 albino mouse assessed as protection against maximal electroshock-induced seizures at 100 mg/kg, ip after 0.5 hrs; format: functional, organism-based; design: dose 100 mg/kg
Mus musculus [14] = experiment: Anticonvulsant activity in CF1 albino mouse assessed as protection against pentylenetetrazole-induced seizure at 100 mg/kg, ip after 0.25 hrs by scMET test; format: functional, organism-based; design: dose 100 mg/kg
Mus musculus [15] = experiment: Anticonvulsant activity in CF1 albino mouse assessed as protection against pentylenetetrazole-induced seizure at 100 mg/kg, ip after 1 hrs by scMET test; format: functional, organism-based; design: dose 100 mg/kg
Mus musculus [16] = experiment: Anticonvulsant activity in CF1 albino mouse assessed as protection against pentylenetetrazole-induced seizure at 100 mg/kg, ip after 4 hrs by scMET test; format: functional, organism-based; design: dose 100 mg/kg
Mus musculus [17] = experiment: Anticonvulsant activity against CF1 albino mouse seizure model assessed as protection at 100 mg/kg, ip after 0.25 hrs by 6 Hz psychomotor seizure test; format: functional, organism-based; design: dose 100 mg/kg
Mus musculus [18] = experiment: Anticonvulsant activity in CF1 albino mouse assessed as protection against pentylenetetrazole-induced seizure at 200 mg/kg, ip after 4 hrs by scMET test; format: functional; settings: route intraperitoneal
Mus musculus [19] = experiment: Anticonvulsant activity in CF1 albino mouse assessed as protection against maximal electroshock-induced seizures at 100 mg/kg, ip after 1 hrs; format: functional, organism-based; design: dose 100 mg/kg
Mus musculus [20] = experiment: Neurotoxicity in CF1 albino mouse seizure model at 100 mg/kg, ip after 1 hrs by rototod test; format: toxicity, organism-based; design: dose 100 mg/kg, route intraperitoneal; settings: in vivo
Mus musculus [21] = experiment: Anticonvulsant activity in CF1 albino mouse assessed as protection against maximal electroshock-induced seizures at 100 mg/kg, ip after 4 hrs; format: functional
Mus musculus [22] = experiment: Anticonvulsant activity in CF1 albino mouse assessed as protection against pentylenetetrazole-induced seizure at 100 mg/kg, ip after 0.5 hrs by scMET test; format: functional, organism-based; design: dose 100 mg/kg
Mus musculus [23] = experiment: Anticonvulsant activity in CF1 albino mouse assessed as protection against Li-pilocarpine-induced seizure at 65 mg/kg, ip; format: functional, organism-based; design: dose 65 mg/kg
Mus musculus [24] = experiment: Neurotoxicity in CF1 albino mouse seizure model at 100 mg/kg, ip after 2 hrs by rototod test; format: toxicity, organism-based; design: dose 100 mg/kg, route intraperitoneal; settings: in vivo
Mus musculus [25] = experiment: Anticonvulsant activity in CF1 albino mouse assessed as protection against maximal electroshock-induced seizures at 100 mg/kg, ip after 2 hrs; format: functional, organism-based; design: dose 100 mg/kg
Mus musculus [26] = experiment: Anticonvulsant activity against CF1 albino mouse seizure model assessed as protection at 100 mg/kg, ip after 4 hrs by 6 Hz psychomotor seizure test; format: functional, organism-based; design: dose 100 mg/kg
Mus musculus [27] = experiment: Reduction Li-pilocarpine-induced weight loss in non-protected CF1 albino mouse at 65 mg/kg, ip after 0.5 hrs; format: functional, organism-based; design: dose 65 mg/kg
Mus musculus [28] = experiment: Reduction Li-pilocarpine-induced weight loss in protected CF1 albino mouse at 65 mg/kg, ip after 0.5 hrs; format: functional, organism-based; design: dose 65 mg/kg

Compound | Time (Mus musculus [1]) [h] | ED50 (Mus musculus [2]) [mg/kg] | Activity (Mus musculus [4]) | selectivity ratio [5] | Activity (Mus musculus [6]) | Activity (Mus musculus [7]) | Time (Mus musculus [3]) [h] | Activity (Mus musculus [9]) | TD50 at 4 h [11] [mg/kg] | Activity (Mus musculus [12]) | Activity (Mus musculus [13]) | Activity (Mus musculus [19]) | Activity (Mus musculus [20]) | Activity (Mus musculus [24]) | also measured
Cc1ccc(C(C)C)cc1 [P-CYMENE] | 0.25 | 51.3 |  |  |  |  |  |  |  |  |  |  |  |  | Activity (Mus musculus [3]): ND(toxic)
CC(C)c1cccc(O)c1 | 0.25 | 53.8 | Non-toxic | 2.4 | Non-toxic | inactive | 4 | Non-toxic | 129 | inactive | inactive |  |  |  | Activity (Mus musculus [8]): inactive; Activity (Mus musculus [10]): Active; Activity (Mus musculus [14]): inactive; Activity (Mus musculus [15]): inactive; Activity (Mus musculus [16]): inactive
Cc1ccc(C(C)C)cc1O [CARVACROL] | 0.25 | 35.8 | Non-toxic | 5.3 | Non-toxic | inactive | 6 | Non-toxic | 191 | inactive | inactive | inactive | Non-toxic | Non-toxic | Activity (Mus musculus [17]): inactive; inhibition in vivo at 200 mg/kg (Mus musculus [18]): 40%; Activity (Mus musculus [21]): inactive; inhibition in vivo at 100 mg/kg (Mus musculus [21]; route intraperitoneal): 20%; Activity (Mus musculus [22]): inactive; Activity (Mus musculus [23]): inactive; Activity (Mus musculus [8]): inactive; Activity (Mus musculus [14]): inactive; Activity (Mus musculus [25]): inactive
Cc1ccc(C(C)C)c(O)c1 [THYMOL] | 0.25 | 35.8 | Non-toxic | 3.4 | Non-toxic |  | 0.25 | Non-toxic | 121 |  |  | inactive | Non-toxic | Non-toxic | Activity (Mus musculus [17]): Active; Activity (Mus musculus [26]): inactive; Activity (Mus musculus [23]): inactive
CC(C)c1ccccc1O | 0.25 | 49.9 | Non-toxic | 2.8 |  | inactive | 4 |  | 142 | inactive | inactive | inactive | Non-toxic | Non-toxic | inhibition (Mus musculus [27]): inactive; inhibition (Mus musculus [28]): inactive; Activity (Mus musculus [25]): inactive; Activity (Mus musculus [16]): inactive
NC(=O)N1c2ccccc2C=Cc2ccccc21 [CARBAMAZEPINE] |  | 47.9 |  |  |  |  |  |  |  |  |  |  |  |  | 
CC(C)c1cccc(C(C)C)c1O [PROPOFOL] |  | 32.8 |  | 1.1 |  |  |  |  |  |  |  |  |  |  | 
CN1C(=O)OC(C)(C)C1=O [TRIMETHADIONE] |  | 218 |  | 3.8 |  |  |  |  |  |  |  |  |  |  | 
